# Results from ChEMBL document CHEMBL2074030, “The systemic exposure of an N-methyl-D-aspartate receptor antagonist is limited in mice by the P-glycoprotein and breast cancer resistance protein efflux transporters” (Drug Metab Dispos, 2004).
# Target: ATP-dependent translocase ABCB1 (Mus musculus, UniProt P21447)
# Assay: TP_TRANSPORTER: transepithelial transport (apical to basal) in Mdr1a-expressing LLC-PK1 cells
# Format: functional, cell-based
# Settings: pig
# ATP-dependent translocase ABCB1, sequence (P21447 whole entry): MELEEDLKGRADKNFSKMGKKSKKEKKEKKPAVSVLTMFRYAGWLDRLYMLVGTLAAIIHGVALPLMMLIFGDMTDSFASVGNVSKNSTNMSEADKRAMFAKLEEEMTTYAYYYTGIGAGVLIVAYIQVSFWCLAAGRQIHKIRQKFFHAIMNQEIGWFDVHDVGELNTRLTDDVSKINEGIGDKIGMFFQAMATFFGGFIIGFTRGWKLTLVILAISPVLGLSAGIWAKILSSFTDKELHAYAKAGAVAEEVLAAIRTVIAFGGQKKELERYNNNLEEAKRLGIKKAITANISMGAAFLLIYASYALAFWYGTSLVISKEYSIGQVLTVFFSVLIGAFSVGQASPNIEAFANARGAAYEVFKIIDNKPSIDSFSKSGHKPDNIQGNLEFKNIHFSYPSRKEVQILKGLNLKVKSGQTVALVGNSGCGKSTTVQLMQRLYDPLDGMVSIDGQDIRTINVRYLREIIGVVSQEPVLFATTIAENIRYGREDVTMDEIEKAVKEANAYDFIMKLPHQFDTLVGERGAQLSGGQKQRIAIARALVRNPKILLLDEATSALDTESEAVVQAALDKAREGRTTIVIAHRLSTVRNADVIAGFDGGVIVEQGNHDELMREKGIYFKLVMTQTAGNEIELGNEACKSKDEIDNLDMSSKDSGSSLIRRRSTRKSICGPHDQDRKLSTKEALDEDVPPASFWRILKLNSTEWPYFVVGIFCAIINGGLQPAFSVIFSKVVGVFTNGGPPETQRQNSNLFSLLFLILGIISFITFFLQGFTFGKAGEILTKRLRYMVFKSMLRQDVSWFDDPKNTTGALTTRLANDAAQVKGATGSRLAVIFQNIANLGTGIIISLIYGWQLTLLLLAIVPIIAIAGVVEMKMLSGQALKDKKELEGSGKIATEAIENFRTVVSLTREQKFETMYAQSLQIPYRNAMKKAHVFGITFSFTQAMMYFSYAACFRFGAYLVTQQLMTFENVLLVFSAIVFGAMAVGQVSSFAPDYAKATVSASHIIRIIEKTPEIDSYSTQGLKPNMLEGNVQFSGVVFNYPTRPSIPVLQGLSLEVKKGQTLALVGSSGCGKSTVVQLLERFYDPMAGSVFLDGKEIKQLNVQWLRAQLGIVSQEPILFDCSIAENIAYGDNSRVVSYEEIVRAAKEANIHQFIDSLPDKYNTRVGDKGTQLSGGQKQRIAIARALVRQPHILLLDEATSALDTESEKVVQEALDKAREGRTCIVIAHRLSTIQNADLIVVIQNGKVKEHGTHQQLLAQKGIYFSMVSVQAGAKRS
row,Activity,SMILES
1,is not a substrate [-],O=C(O)c1[nH]c2cc(Cl)cc(Cl)c2c1/C=C1\CCN(c2ccccc2)C1=O
2,substrate [+],CC(C)CN(C[C@@H](O)[C@H](Cc1ccccc1)NC(=O)O[C@H]1CCOC1)S(=O)(=O)c1ccc(N)cc1 [AMPRENAVIR]
